From PubChem BioAssay (NCI)
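Interpolation was linear, between the two tested concentrations surrounding the appropriate level; five concentrations were tested over 48 hours in 96-well plates. Here, GI50 denotes the concentration required for 50% inhibition of growth. At the TGI there is no net growth.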

What was measured:
Assay in all cases: inhibition of tumour cell growth, NCI panel, 48 h
[1] = tested on: A549 NSCLC
[2] = tested on: EKVX NSCLC
[3] = tested on: HOP-62 NSCLC
[4] = tested on: K-562 leukemia
[5] = tested on: MALME-3M melanoma
[6] = tested on: NCI/ADR-RES ovarian
[7] = tested on: SK-MEL-28 melanoma
[8] = tested on: TK-10 renal
[9] = tested on: HOP-92 NSCLC
[10] = tested on: SR leukemia

Row | Compound | GI50 [1] | TGI [1] | GI50 [2] | TGI [2] | GI50 [3] | TGI [3] | GI50 [4] | TGI [4] | GI50 [5] | TGI [5] | GI50 [6] | TGI [6] | GI50 [7] | TGI [7] | GI50 [8] | TGI [8] | TGI [9] | TGI [10]
1 | C(#Cc1ccccc1C#Cc1cccs1)c1cccs1 | 89.9 µM | > 100 µM | 73.1 µM | > 100 µM | 77.3 µM | > 100 µM | 30.2 µM | > 100 µM | 56.9 µM | > 100 µM | 25.2 µM | > 100 µM | > 100 µM | > 100 µM | 27.7 µM | > 100 µM |  | 
2 | Cc1ccc(S(=O)(=O)OC2CSS(=O)CC2OS(=O)(=O)c2ccc(C)cc2)cc1 (stereo unspecified) |  | 37.9 µM |  | 35.7 µM |  | 36.7 µM |  | 21.1 µM |  | 27.8 µM |  |  |  | 29 µM |  | 28.5 µM | 25.9 µM | 8.15 µM
3 | OC(c1ccccc1)(c1ccccc1)c1ccncc1 |  | > 100 µM |  | > 100 µM |  | > 100 µM |  | > 100 µM |  | > 100 µM |  |  |  | > 100 µM |  | > 100 µM | > 100 µM | > 100 µM
4 | O=C(O)C(SC(=S)c1ccc(C(=S)SC(C(=O)O)c2ccccc2)cc1)c1ccccc1 (stereo unspecified) |  | > 100 µM |  |  |  | > 100 µM |  | > 100 µM |  | > 100 µM |  |  |  | > 100 µM |  | > 100 µM | > 100 µM | > 100 µM
5 | Clc1ccc(C2SCc3nc4ccccc4n32)c(Cl)c1 (stereo unspecified) |  | 28.8 µM |  | 24.9 µM |  | 27.5 µM |  | 39.6 µM |  | 32.5 µM |  |  |  | 31.6 µM |  | 28.4 µM | 11 µM | 39.1 µM
